The results in this text go back to patent EP3898610B1, “NOVEL AZA-HEXAPHENE ANTIBIOTIC COMPOUNDS” (Fondazione Istituto Insubrico di Ricerca per la Vita, priority 2018, dated 2020).

Structures are written as SMILES. Values after ≈ are worked out from the molar mass of the structure shown. A value given as a limit tells only on which side of the number the result lay.

What all share (type): cell-based
Series [1] deals with VA8101 S. agalactiae (Group B). Kind of series: MIC, broth microdilution (CLSI). Particulars: Streptococcus agalactiae; VA8101 S. agalactiae (Group B); Todd Hewitt medium, 35°C, 18-24 hours; read-out: MIC. How it is done: (§1) Antibacterial activity. […] Each bacterial strain was inoculated with 2-5×10^5 CFU/ml, Candida albicans with 10^4 CFU/ml. Cultures were incubated at 35°C in air. After 18-24 hours visual readings were performed and MICs (Minimal Inhibitory Concentrations) determined. The effect of 30% bovine serum was determined under the same experimental conditions. The strains used were clinical isolates or strains from American Type Culture Collection (ATCC).

Series [2] has as its system L568 E. faecium. Description: MIC, broth microdilution (CLSI). To be noted: Enterococcus faecium; L568 E. faecium; cation-adjusted Mueller Hinton Broth, 35°C, 18-24 hours; read-out: MIC. The protocol:
as §1

Series [3] deals with L569 E. faecium VanA. Description: MIC, broth microdilution (CLSI). To be noted: Enterococcus faecium; L569 E. faecium VanA; cation-adjusted Mueller Hinton Broth, 35°C, 18-24 hours; read-out: MIC. How it is done: as §1
Series [4] relates to L1730 S. haemolyticus. Description: MIC, broth microdilution (CLSI). To be noted: Staphylococcus haemolyticus; L1730 S. haemolyticus; cation-adjusted Mueller Hinton Broth, 35°C, 18-24 hours; read-out: MIC. How it is done: as §1
Series [5] has as its system L1729 S. haemolyticus MDR. Kind of series: MIC, broth microdilution (CLSI). To be noted: Staphylococcus haemolyticus; L1729 S. haemolyticus MDR; cation-adjusted Mueller Hinton Broth, 35°C, 18-24 hours; read-out: MIC. How it is done:
as §1

For series [6], the system named is L100 S. aureus ATCC6538P. Kind of series: MIC, broth microdilution (CLSI). To be noted: Staphylococcus aureus; L100 S. aureus ATCC6538P; cation-adjusted Mueller Hinton Broth, 35°C, 18-24 hours; read-out: MIC. The protocol:
as §1

Series [7] deals with L560 E. faecalis VanA. Description: MIC, broth microdilution (CLSI). Particulars: Enterococcus faecalis; L560 E. faecalis VanA; cation-adjusted Mueller Hinton Broth, 35°C, 18-24 hours; read-out: MIC. How it is done: as §1
Series [8] concerns VA80201 S. aureus CA-MRSA. Description: MIC, broth microdilution (CLSI). To be noted: Staphylococcus aureus; VA80201 S. aureus CA-MRSA; cation-adjusted Mueller Hinton Broth, 35°C, 18-24 hours; read-out: MIC. How it is done:
as §1

Series [9] deals with L819 S. aureus Smith. Kind of series: MIC, broth microdilution (CLSI). To be noted: Staphylococcus aureus; L819 S. aureus Smith; cation-adjusted Mueller Hinton Broth, 35°C, 18-24 hours; read-out: MIC. The protocol:
as §1

Series [10] relates to L47 E. coli. Kind of series: MIC, broth microdilution (CLSI). Particulars: Escherichia coli; L47 E. coli; cation-adjusted Mueller Hinton Broth, 35°C, 18-24 hours; read-out: MIC. The protocol: as §1
The subject of series [11] is L49 S. pyogenes C203. Description: MIC, broth microdilution (CLSI). To be noted: Streptococcus pyogenes; L49 S. pyogenes C203; Todd Hewitt medium, 35°C, 18-24 hours; read-out: MIC. How it is done: as §1
The test system of series [12] is L1577 S. epidermidis. Kind of series: MIC, broth microdilution (CLSI). To be noted: Staphylococcus epidermidis; L1577 S. epidermidis; cation-adjusted Mueller Hinton Broth, 35°C, 18-24 hours; read-out: MIC. The protocol:
as §1

The test system of series [13] is L1400 S. aureus HA-MRSA. Description: MIC, broth microdilution (CLSI). To be noted: Staphylococcus aureus; L1400 S. aureus HA-MRSA; cation-adjusted Mueller Hinton Broth, 35°C, 18-24 hours; read-out: MIC. The protocol: as §1
Series [14] concerns L44 S. pneumoniae. Kind of series: MIC, broth microdilution (CLSI). To be noted: Streptococcus pneumoniae; L44 S. pneumoniae; Todd Hewitt medium, 35°C, 18-24 hours; read-out: MIC. How it is done:
as §1

Series [15] concerns L4061 S. aureus MRSA - GISA. Description: MIC, broth microdilution (CLSI). Particulars: Staphylococcus aureus; L4061 S. aureus MRSA - GISA; cation-adjusted Mueller Hinton Broth, 35°C, 18-24 hours; read-out: MIC. The protocol:
as §1

The subject of series [16] is L559 E. faecalis. Kind of series: MIC, broth microdilution (CLSI). To be noted: Enterococcus faecalis; L559 E. faecalis; cation-adjusted Mueller Hinton Broth, 35°C, 18-24 hours; read-out: MIC. The protocol: as §1
The test system of series [17] is Hela cells from cervix adenocarcinoma. Kind of series: Cytotoxicity against human cells. Particulars: at 200 µg/ml.
In series [18] the test system is L4187 E. faecium VanA - Lnz R - Cpx R. Description: microbe, parasite or virus in culture. To be noted: Enterococcus faecium; L4187 E. faecium VanA - Lnz R - Cpx R; cation-adjusted Mueller Hinton Broth, 35°C, 18-24 hours; read-out: MIC. The protocol:
as §1

In series [19] the test system is VA645601 B. clausii. Kind of series: MIC, broth microdilution (CLSI). To be noted: Shouchella clausii, 35°C, 18-24 hours. The protocol:
(§2) Antibacterial activity. The antimicrobial activity of the antibiotic 103/33-F710 was determined by the broth microdilution method according to the procedures published by the Clinical and Laboratory Standards Institute (CLSI), formerly the National Committee for Clinical Laboratory Standards (NCCLS) (document M07-A9). Microorganisms were grown in either cation-adjusted Mueller Hinton Broth (Staphylococci, Enterococci, Moraxella catarrhalis, Escherichia coli), Todd Hewitt medium (Streptococci) or RPMI 1640 medium for Candida albicans on 96-well microtiter plates. Each bacterial strain was inoculated with 2-5×10^5 CFU/ml, Candida albicans with 10^4 CFU/ml. Cultures were incubated at 35°C in air. After 18-24 hours visual readings were performed and MICs (Minimal Inhibitory Concentrations) determined. The effect of 30% bovine serum was determined under the same experimental conditions. The strains used were clinical isolates or strains from American Type Culture Collection (ATCC). The antibiotic 103/33-F710 was dissolved in DMSO to obtain a 1000 µg/ml stock solution, and subsequently diluted in water to obtain working solution. Table 5: Antimicrobial activity reported as MIC (µg/ml) of ID103/33-F710

The test system of series [20] is VA827901 B. cereus. Description: MIC, broth microdilution (CLSI). To be noted: Bacillus cereus, 35°C, 18-24 hours. The protocol: as §2
Series [21] deals with VA801801 L. monocytogenes. Description: MIC, broth microdilution (CLSI). To be noted: Listeria monocytogenes, 35°C, 18-24 hours. How it is done: as §2

With `COc1c(OC)c2c(=O)c3cc(C)n(C(CC4CN(C)C(=N)N4)C(=O)O)c(=O)c3c(=O)c2c2cc3c(=O)c4cc(O)cc(O)c4c(=O)c3c(OC)c12` (stereo not shown) [compound 1, 2-(10,12-Dihydroxy-6,7,8-trimethoxy-3-methyl-1,5,9,14,16-pentaoxo-5,9,14,16-tetrahydro-1H-2-aza-hexaphen-2-yl)-3-(2-imino-1-methyl-imidazolidin-4-yl)-propionic acid], the MIC in [1] was found to be 8 µg/mL (≈ 11.3 µM); in [2], 2 µg/mL (≈ 2.81 µM); in series [3], 2 µg/mL (≈ 2.81 µM); in series [4], 0.03 µg/mL (≈ 0.0422 µM); in series [5] it was 0.016 µg/mL (≈ 0.0225 µM); in [6] it was 0.03 µg/mL (≈ 0.0422 µM). Also, the MIC in series [7] is 0.03 µg/mL (≈ 0.0422 µM); in series [8], 0.015 µg/mL (≈ 0.0211 µM); in series [9] it was 0.06 µg/mL (≈ 0.0844 µM); in series [10], > 256 µg/mL; in series [11], 16 µg/mL (≈ 22.5 µM); in series [12] it was 0.06 µg/mL (≈ 0.0844 µM). The MIC in [13] worked out at 0.03 µg/mL (≈ 0.0422 µM); in [14], 16 µg/mL (≈ 22.5 µM); in series [15] it was 0.06 µg/mL (≈ 0.0844 µM); in [16], 0.03 µg/mL (≈ 0.0422 µM); in series [18], 2 µg/mL (≈ 2.81 µM); in series [19], 0.125 µg/mL (≈ 0.176 µM). In addition, the MIC in series [20] and in series [21] was 0.06 µg/mL (≈ 0.0844 µM) each time. The “toxicity against human cells” value in [17] (Hela cells, the highest concentration tested) is “no toxicity”. In addition, the “inhibit replication of HeLa cell” value in [17] is recorded as “does not inhibit”.
